Source: PubChem BioAssay AID328 (DTP/NCI, 2004)
Several values for one entry are separate records, joined by “and”; a condition that tells them apart may be missing. Equal values may be shown once. Inconclusive results and toxic doses are left out. Rule for the calls: active = survival T/C of 150% or more; inactive = T/C below 125% in these data.

System: BDF1 mice, P388 leukemia ip, median survival T/C
Test: NCI In Vivo Anticancer Drug Screen. Data for tumor model P388 Leukemia (intraperitoneal) in B6D2F1 (BDF1) mice
Details: endpoint: median survival time, higher = longer survival
Method in brief: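 In tumour-bearing mice, survival after compound treatment is set against the vehicle group and given as a quotient.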

[1] = dose: 50.0 mg/kg/injection, schedule: Q01DX009 (ip), vehicle: saline with Tween-80
[2] = dose: 200.0 mg/kg/injection, schedule: Q01DX009 (ip), vehicle: saline with Tween-80
[3] = dose: 50.0 mg/kg/injection, schedule: Q04DX003 (ip), vehicle: Klucel (hydroxypropylcellulose) (HPC)
[4] = dose: 100.0 mg/kg/injection, schedule: Q01DX001 (ip), vehicle: Klucel (hydroxypropylcellulose) (HPC)
[5] = dose: 100.0 mg/kg/injection, schedule: Q04DX003 (ip), vehicle: Klucel (hydroxypropylcellulose) (HPC)
[6] = dose: 200.0 mg/kg/injection, schedule: Q01DX001 (ip), vehicle: Klucel (hydroxypropylcellulose) (HPC)
[7] = dose: 100.0 mg/kg/injection, schedule: Q01DX009 (ip), vehicle: saline with Tween-80
[8] = dose: 100.0 mg/kg/injection, schedule: Q01DX009 (ip), vehicle: Klucel (hydroxypropylcellulose) (HPC)
[9] = dose: 100.0 mg/kg/injection, schedule: Q04DX003 (ip), vehicle: saline with Tween-80
[10] = dose: 200.0 mg/kg/injection, schedule: Q01DX009 (ip), vehicle: Klucel (hydroxypropylcellulose) (HPC)
[11] = dose: 200.0 mg/kg/injection, schedule: Q04DX003 (ip), vehicle: saline with Tween-80
[12] = dose: 50.0 mg/kg/injection, schedule: Q04DX003 (ip), vehicle: saline sonified
[13] = dose: 100.0 mg/kg/injection, schedule: Q04DX003 (ip), vehicle: saline sonified
[14] = dose: 200.0 mg/kg/injection, schedule: Q04DX003 (ip), vehicle: saline sonified
[15] = dose: 200.0 mg/kg/injection, schedule: Q04DX003 (ip), vehicle: Klucel (hydroxypropylcellulose) (HPC)
[16] = dose: 400.0 mg/kg/injection, schedule: Q01DX009 (ip), vehicle: Klucel (hydroxypropylcellulose) (HPC)
[17] = dose: 400.0 mg/kg/injection, schedule: Q04DX003 (ip), vehicle: Klucel (hydroxypropylcellulose) (HPC)
[18] = dose: 25.0 mg/kg/injection, schedule: Q01DX009 (ip), vehicle: saline
[19] = dose: 50.0 mg/kg/injection, schedule: Q01DX009 (ip), vehicle: saline
[20] = dose: 50.0 mg/kg/injection, schedule: Q04DX003 (ip), vehicle: saline
[21] = dose: 100.0 mg/kg/injection, schedule: Q04DX003 (ip), vehicle: saline
[22] = dose: 200.0 mg/kg/injection, schedule: Q04DX003 (ip), vehicle: saline
[23] = dose: 400.0 mg/kg/injection, schedule: Q04DX003 (ip), vehicle: saline

Measured: T/C

C1CCN[N-]C1.C1CCN[N-]C1.[Cl][Pt+2]([Cl])([Cl])[Cl]
inactive: dose: 0.78 mg/kg/injection, schedule: Q01DX009 (ip), vehicle: water 103 % of control | dose: 1.56 mg/kg/injection, schedule: Q01DX009 (ip), vehicle: water 112 % of control | dose: 3.12 mg/kg/injection, schedule: Q01DX009 (ip), vehicle: water 120 % of control | dose: 6.25 mg/kg/injection, schedule: Q01DX009 (ip), vehicle: water 106 % of control and 111 % of control | dose: 25.0 mg/kg/injection, schedule: Q04DX003 (ip), vehicle: water 104 % of control | dose: 50.0 mg/kg/injection, schedule: Q04DX003 (ip), vehicle: water 95 % of control

c1ccc(-c2nnn(-c3ccccc3)n2)cc1
inactive: [1] 93 % of control | [2] 93 % of control

CN(C)C(=S)SC(=S)N(C)C
inactive: dose: 25.0 mg/kg/injection, schedule: Q04DX003 (ip), vehicle: Klucel (hydroxypropylcellulose) (HPC) 100 % of control | [3] 95 % of control | [4] 100 % of control and 104 % of control | [5] 109 % of control | [6] 100 % of control | dose: 400.0 mg/kg/injection, schedule: Q01DX001 (ip), vehicle: Klucel (hydroxypropylcellulose) (HPC) 104 % of control and 108 % of control

Cc1[nH]nc(-c2ccon2)c1N=O
inactive: [1] 111 % of control | [7] 113 % of control

Cc1ccc(C)c(CCO)c1
inactive: dose: 45.0 mg/kg/injection, schedule: Q01DX009 (ip), vehicle: other 105 % of control | dose: 50.0 mg/kg/injection, schedule: Q01DX009 (ip), vehicle: Klucel (hydroxypropylcellulose) (HPC) 108 % of control | dose: 65.0 mg/kg/injection, schedule: Q01DX009 (ip), vehicle: other 100 % of control | [8] 100 % of control | dose: 100.0 mg/kg/injection, schedule: Q01DX009 (ip), vehicle: other 100 % of control | [9] 109 % of control | dose: 150.0 mg/kg/injection, schedule: Q01DX009 (ip), vehicle: other 105 % of control | [10] 112 % of control | dose: 200.0 mg/kg/injection, schedule: Q01DX009 (ip), vehicle: other 104 % of control and 120 % of control | [11] 109 % of control

O=C(O)/C=C/c1ccc(Cl)cc1Cl
inactive: [1] 95 % of control | [7] 90 % of control | [2] 90 % of control

CCCSc1ccc([N+](=O)[O-])cc1
inactive: dose: 200.0 mg/kg/injection, schedule: Q04DX002 (ip), vehicle: saline with Tween-80 93 % of control | dose: 400.0 mg/kg/injection, schedule: Q04DX002 (ip), vehicle: saline with Tween-80 101 % of control

CCOS(=O)(=O)c1ccc([N+](=O)[O-])cc1[N+](=O)[O-]
inactive: dose: 50.0 mg/kg/injection, schedule: Q01DX001 (ip), vehicle: saline 95 % of control | dose: 100.0 mg/kg/injection, schedule: Q01DX001 (ip), vehicle: saline 104 % of control | dose: 200.0 mg/kg/injection, schedule: Q01DX001 (ip), vehicle: saline 118 % of control

C/C(=N\O)c1ccc2ccc3ccccc3c2c1
inactive: [12] 104 % of control | [13] 104 % of control | [14] 100 % of control

CCCCCCCCCCCCSCCSCCSCCCCCCCCCCCC
inactive: dose: 100.0 mg/kg/injection, schedule: Q01DX001 (ip), vehicle: saline with Tween-80 95 % of control | dose: 200.0 mg/kg/injection, schedule: Q01DX001 (ip), vehicle: saline with Tween-80 95 % of control | dose: 400.0 mg/kg/injection, schedule: Q01DX001 (ip), vehicle: saline with Tween-80 90 % of control

CC(=O)CC(C)=O.CC(=O)CC(C)=O.O=N[O-].O=N[O-].[Co]
inactive: dose: 25.0 mg/kg/injection, schedule: Q04DX002 (ip), vehicle: saline with Tween-80 106 % of control | dose: 50.0 mg/kg/injection, schedule: Q04DX002 (ip), vehicle: saline with Tween-80 109 % of control

COc1cc(C)c(Cl)c(C)c1C#CC(=O)O
inactive: [4] 115 % of control | [6] 111 % of control

CC(C)CCOC(=O)Cc1ccccc1
inactive: [8] 100 % of control | [5] 90 % of control | [10] 115 % of control | [15] 113 % of control | [16] 115 % of control | [17] 118 % of control

O=C(/C=N\O)c1ccncc1
inactive: [3] 100 % of control | [5] 100 % of control

Clc1ccccc1CSc1ncnc2nc[nH]c12
inactive: [8] 90 % of control | [5] 95 % of control | [10] 90 % of control | [15] 100 % of control | [16] 104 % of control | [17] 100 % of control

CCOC(=O)/C(C#N)=N\O
inactive: [18] 100 % of control | dose: 25.0 mg/kg/injection, schedule: Q04DX003 (ip), vehicle: saline 113 % of control | [19] 120 % of control | [20] 104 % of control | [21] 95 % of control

Cc1nc([N+](=O)[O-])cn1CCC#N
inactive: [9] 98 % of control | [11] 99 % of control | dose: 400.0 mg/kg/injection, schedule: Q04DX003 (ip), vehicle: saline with Tween-80 86 % of control

Cc1ccc(NO)c(C)c1
inactive: dose: 50.0 mg/kg/injection, schedule: Q01DX005 (ip), vehicle: saline with Tween-80 113 % of control | dose: 100.0 mg/kg/injection, schedule: Q01DX005 (ip), vehicle: saline with Tween-80 108 % of control

N=N/C(=C\c1c(O)[nH]c2ccccc12)c1ccccc1
inactive: [3] 100 % of control | [5] 108 % of control | [15] 108 % of control | [17] 90 % of control

NC(=O)c1ncn[nH]1
inactive: [1] 95 % of control | dose: 50.0 mg/kg/injection, schedule: Q04DX003 (ip), vehicle: saline with Tween-80 104 % of control | [7] 87 % of control | [9] 100 % of control | [2] 104 % of control | [11] 100 % of control

O=c1ccc2c([nH]1)CCCCC2
inactive: [12] 104 % of control | [13] 100 % of control | [14] 95 % of control

COc1c(I)cc(/C=C(\C)[N+](=O)[O-])cc1I
inactive: [1] 110 % of control | [7] 112 % of control

O=C1c2ccccc2C2N1CCCN2C(=O)c1sc2ccccc2c1Cl (centres undefined)
inactive: [1] 88 % of control | [7] 86 % of control | [2] 94 % of control

ClCc1ccncc1
inactive: [21] 100 % of control | [22] 100 % of control

CC1N/C(=C/c2ccccc2)C(=O)O1 (centres undefined)
inactive: [1] 118 % of control | [7] 121 % of control

CCSC1(SCC)C(=O)OC2=C(CCCCC2)C1N(C)c1ccccc1 (centres undefined)
inactive: [1] 87 % of control | [2] 96 % of control

COc1cc2ccc(CN3CCCC3C(=O)OCc3ccccc3)cc2cc1OC (centres undefined)
inactive: [7] 100 % of control | [21] 109 % of control | [2] 104 % of control | [22] 118 % of control | dose: 400.0 mg/kg/injection, schedule: Q01DX009 (ip), vehicle: saline with Tween-80 116 % of control | [23] 100 % of control

CCOCN(COCC)c1ccc(C)cc1
inactive: [1] 97 % of control | [7] 104 % of control | [2] 97 % of control

O=C(O)/C(=C/c1ccc(Cl)cc1)c1ccccc1
inactive: [7] 91 % of control | [2] 94 % of control

NC(Cc1ccc(O)c(I)c1)C(=O)O (centres undefined)
inactive: [18] 109 % of control | [19] 113 % of control | [20] 110 % of control | dose: 100.0 mg/kg/injection, schedule: Q01DX009 (ip), vehicle: saline 120 % of control | [21] 110 % of control | dose: 200.0 mg/kg/injection, schedule: Q01DX009 (ip), vehicle: saline 95 % of control | [22] 115 % of control | [23] 110 % of control

CCCCOB(CCl)OCCCC
inactive: dose: 6.25 mg/kg/injection, schedule: Q01DX001 (ip), vehicle: saline 104 % of control | dose: 12.5 mg/kg/injection, schedule: Q01DX001 (ip), vehicle: saline 100 % of control | dose: 25.0 mg/kg/injection, schedule: Q01DX001 (ip), vehicle: saline 100 % of control
